Laboratory results: patent US6391656B2, “Assay and reagent kit for evaluation of multi-drug resistance in cells” (SOLVO Biotechnology, priority 1994, dated 2002)
Values after ≈ are worked out from the molar mass of the structure shown. Like-named read-outs stand apart in the source and are kept apart here.

Columns and labels:
MDR1 [1] = target: T1, MDR1 (Homo sapiens, UniProt P08183); assay: Inhibition of MDR1-mediated calcein-AM extrusion (calcein accumulation) in 3T3 MDR and K562 MDR cells
MRP = target: T2, MRP (Homo sapiens, UniProt P33527); assay: Inhibition of MRP-mediated calcein-AM extrusion (calcein accumulation) in S1MRP and HL60 ADR cells; assay type: cell-based
T2 construct: endogenous in cells

K562-C cells = assay: Cytotoxicity assay, 3 days culture with adriamycin; assay type: cell-based; conditions: Homo sapiens, 72 h, K562-C cell line, read-out: Resistance to Adriamycin (IC50, ng/ml)
Method: (§1) Cells were cultured for 3 days under standard conditions in the presence of 0.1-100 ng/ml adriamycin. The number of cells in the different cell cultures is given as the percentage of the number of cells counted in the culture not treated with the drug. As it can well be seen on FIG. 5, the really expressed drug resistance is in much better accordance with the results obtained by the method of the invention based on the measurement of calcein accumulation than with those obtained by the traditional immunological measurement of MDR expression.
(§2) Cells were cultured for 3 days under standard conditions in the presence of 0.1-100 ng/ml adriamycin. The number of cells in the different cell cultures is given as the percentage of the number of cells counted in the culture not treated with the drug.

K562-mMDR cells = assay: Cytotoxicity assay, 3 days culture with adriamycin; assay type: cell-based; conditions: Homo sapiens, 72 h, K562-mMDR cell line (inactive mutant MDR protein), read-out: Resistance to Adriamycin (IC50, ng/ml)
Method: as §1, §2

K562-MDR cells = assay: Cytotoxicity assay, 3 days culture with adriamycin; assay type: cell-based; conditions: Homo sapiens, 72 h, K562-MDR cell line, read-out: Resistance to Adriamycin (IC50, ng/ml)
Method: as §1, §2

P388-MDRa cells = assay: Cytotoxicity assay, adriamycin resistance; assay type: cell-based, murine; conditions: Mus musculus; P388-MDRa cell line
Excerpt: (§3) Elapsed time is shown on the abscissa and fluorescence intensity in arbitrary units is shown on the ordinate.

P388-MDRb cells = assay: Cytotoxicity assay, adriamycin resistance; assay type: cell-based, murine; conditions: Mus musculus; P388-MDRb cell line
Excerpt: as §3

P388-C cells [2] = assay: Cytotoxicity assay, adriamycin resistance; assay type: cell-based, murine; conditions: Mus musculus; P388-C control cell line
Excerpt: as §3

MDR1 [3] = target: T1, MDR1
KB3 cells = assay: Calcein accumulation by flow cytometry in control cells; conditions: 100 μmol/l verapamil pretreatment 5 min, control cell line KB3
Method: In the experiments shown in FIG. 2 a drug sensitive (control, cell line KB3) and three increasingly multi-drug resistant (cell lines KB-V1a-c) human epidermoid carcinoma cell lines were examined.
As all the specimens were incubated for the same time (10 min) with calcein-AM, the measure of the accumulation of calcein detected exactly after 10 minutes can be taken as the rate of calcein accumulation.

P388-C cells [4] = assay: Calcein accumulation by fluorescent spectrophotometry in control cells; assay type: cell-based, murine; conditions: 100 μmol/l verapamil
Excerpt: as §3

MDR dependent ATPase = MDR dependent ATPase (Homo sapiens, UniProt P08183); conditions: cited from earlier work
[5] = read-out: IC50 MDR1, inhibition of MDR1-mediated calcein-AM extrusion, 3T3 MDR and K562 MDR cells, range of at least 3 independent experiments, > = 50% inhibition not achieved (a solubility problem, b esterase inhibition)
[6] = inhibition of MRP-mediated calcein-AM extrusion, S1MRP and HL60 ADR cells, range of at least 3 independent experiments with each cell line, read-out: IC50 MRP

T1 sequence (P08183 whole entry): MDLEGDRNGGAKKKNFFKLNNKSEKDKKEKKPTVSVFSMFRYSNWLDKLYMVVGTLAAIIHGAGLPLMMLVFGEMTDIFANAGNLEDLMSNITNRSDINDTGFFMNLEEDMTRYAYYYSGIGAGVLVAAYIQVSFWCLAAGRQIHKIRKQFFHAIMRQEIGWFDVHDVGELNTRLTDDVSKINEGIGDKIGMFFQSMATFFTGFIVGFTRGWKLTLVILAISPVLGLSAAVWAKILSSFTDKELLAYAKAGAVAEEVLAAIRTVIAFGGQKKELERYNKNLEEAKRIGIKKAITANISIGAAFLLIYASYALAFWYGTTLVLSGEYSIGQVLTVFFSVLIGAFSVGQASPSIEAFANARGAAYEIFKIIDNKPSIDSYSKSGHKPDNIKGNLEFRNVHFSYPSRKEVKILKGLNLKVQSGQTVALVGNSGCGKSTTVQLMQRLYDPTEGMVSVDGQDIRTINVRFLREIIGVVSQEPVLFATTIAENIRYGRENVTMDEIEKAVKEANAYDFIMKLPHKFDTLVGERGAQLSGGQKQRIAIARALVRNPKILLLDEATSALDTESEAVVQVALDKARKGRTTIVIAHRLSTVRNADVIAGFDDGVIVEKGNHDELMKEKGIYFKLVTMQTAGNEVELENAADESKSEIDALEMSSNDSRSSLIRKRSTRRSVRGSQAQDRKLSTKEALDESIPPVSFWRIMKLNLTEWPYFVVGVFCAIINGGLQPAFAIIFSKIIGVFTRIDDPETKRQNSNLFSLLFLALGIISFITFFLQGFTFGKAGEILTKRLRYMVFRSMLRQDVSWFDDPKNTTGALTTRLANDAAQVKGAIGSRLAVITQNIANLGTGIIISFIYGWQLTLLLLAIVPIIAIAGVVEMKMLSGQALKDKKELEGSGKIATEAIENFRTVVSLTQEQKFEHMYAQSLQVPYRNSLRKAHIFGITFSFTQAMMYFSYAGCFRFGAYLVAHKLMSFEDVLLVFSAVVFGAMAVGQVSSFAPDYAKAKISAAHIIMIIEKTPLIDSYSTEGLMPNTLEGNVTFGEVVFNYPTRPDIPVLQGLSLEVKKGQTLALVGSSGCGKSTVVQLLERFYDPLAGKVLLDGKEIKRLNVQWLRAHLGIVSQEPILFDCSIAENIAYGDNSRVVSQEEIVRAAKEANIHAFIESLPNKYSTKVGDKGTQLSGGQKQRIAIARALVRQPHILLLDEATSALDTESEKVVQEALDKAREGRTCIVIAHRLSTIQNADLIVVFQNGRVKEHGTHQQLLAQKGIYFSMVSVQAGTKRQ
T2 sequence (P33527 whole entry): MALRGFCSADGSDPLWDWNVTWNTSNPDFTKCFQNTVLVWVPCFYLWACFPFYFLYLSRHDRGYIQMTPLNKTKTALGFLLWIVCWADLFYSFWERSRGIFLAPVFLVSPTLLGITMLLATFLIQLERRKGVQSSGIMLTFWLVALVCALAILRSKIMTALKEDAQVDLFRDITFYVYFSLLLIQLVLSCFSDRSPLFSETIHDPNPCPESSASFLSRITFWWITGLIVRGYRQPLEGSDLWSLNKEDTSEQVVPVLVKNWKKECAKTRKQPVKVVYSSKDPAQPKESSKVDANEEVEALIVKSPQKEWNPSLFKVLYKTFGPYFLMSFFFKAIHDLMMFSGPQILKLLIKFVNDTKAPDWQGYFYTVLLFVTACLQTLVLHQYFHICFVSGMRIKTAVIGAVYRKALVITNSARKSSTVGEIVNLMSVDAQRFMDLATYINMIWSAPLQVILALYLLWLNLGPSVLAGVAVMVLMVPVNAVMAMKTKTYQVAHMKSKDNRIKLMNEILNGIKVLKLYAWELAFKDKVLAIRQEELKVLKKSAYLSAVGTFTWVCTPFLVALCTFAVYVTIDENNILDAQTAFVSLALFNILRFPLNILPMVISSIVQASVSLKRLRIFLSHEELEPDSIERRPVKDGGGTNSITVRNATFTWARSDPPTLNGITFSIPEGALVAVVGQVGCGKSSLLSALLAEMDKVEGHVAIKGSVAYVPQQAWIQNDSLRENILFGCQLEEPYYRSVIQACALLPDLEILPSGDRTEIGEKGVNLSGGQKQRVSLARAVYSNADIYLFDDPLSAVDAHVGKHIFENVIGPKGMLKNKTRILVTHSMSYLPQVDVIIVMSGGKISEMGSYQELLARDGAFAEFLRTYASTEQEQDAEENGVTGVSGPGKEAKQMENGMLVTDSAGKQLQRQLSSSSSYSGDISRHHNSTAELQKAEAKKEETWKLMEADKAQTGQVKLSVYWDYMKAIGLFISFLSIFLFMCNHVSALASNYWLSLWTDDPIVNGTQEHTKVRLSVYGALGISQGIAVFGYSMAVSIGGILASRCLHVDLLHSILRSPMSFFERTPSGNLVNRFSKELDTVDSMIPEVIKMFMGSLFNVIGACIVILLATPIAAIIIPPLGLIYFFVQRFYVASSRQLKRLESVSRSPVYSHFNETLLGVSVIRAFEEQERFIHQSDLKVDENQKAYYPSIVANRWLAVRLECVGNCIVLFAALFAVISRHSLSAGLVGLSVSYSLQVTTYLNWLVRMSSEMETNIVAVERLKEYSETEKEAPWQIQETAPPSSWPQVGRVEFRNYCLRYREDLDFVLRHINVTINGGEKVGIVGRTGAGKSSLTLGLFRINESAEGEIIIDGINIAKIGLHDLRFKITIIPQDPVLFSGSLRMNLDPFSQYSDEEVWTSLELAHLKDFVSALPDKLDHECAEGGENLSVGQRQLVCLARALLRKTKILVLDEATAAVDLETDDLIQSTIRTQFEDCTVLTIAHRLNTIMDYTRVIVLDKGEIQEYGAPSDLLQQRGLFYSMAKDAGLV
MDR dependent ATPase, sequence (P08183 whole entry): as the sequence (P08183 whole entry) above

Compound	IC50 (MRP; [6])	IC50 (MDR1 [1])	further results
O=[N+]([O-])c1ccc(O)c([N+](=O)[O-])c1 [2,4-DNP]	30 to 50 µM		IC50 (MDR1 [1]; [5]): > 200 µM
COc1cccc2c1C(=O)c1c(O)c3c(c(O)c1C2=O)C[C@@](O)(C(=O)CO)C[C@@H]3O[C@H]1C[C@H](N)[C@H](O)[C@H](C)O1 [Adriamycin]			IC50 (K562-C cells): 0.7 ng/mL (≈ 1.29 nM); IC50 (K562-mMDR cells): 0.35 ng/mL (≈ 0.644 nM); IC50 (K562-MDR cells): 3.1 ng/mL (≈ 5.7 nM); IC50 (P388-MDRa cells): 4 ng/mL (≈ 7.36 nM); IC50 (P388-MDRb cells): 9 ng/mL (≈ 16.6 nM); IC50 (P388-C cells [2]): 0.5 ng/mL (≈ 0.92 nM)
CCc1oc2ccccc2c1C(=O)c1cc(Br)c(O)c(Br)c1 [Benzbromarone]		> 500 µM	
O=C1OC(c2ccc(O)c(S(=O)(=O)O)c2)(c2ccc(O)c(S(=O)(=O)O)c2)c2c(Br)c(Br)c(Br)c(Br)c21 [Bromosulfophthalein]	100 to 150 µM		IC50 (MDR1 [1]; [5]): > 1000 µM
N#CC(C#N)=NNc1cccc(Cl)c1 [CCCP]	10 to 30 µM		IC50 (MDR1 [3]): > 200 µM
O=C(O)CCCc1ccc(N(CCCl)CCCl)cc1 [Chlorambucil]		> 500 µM	IC50 (MRP): 30 to 50 µM
Clc1ccc(COC(Cn2ccnc2)c2ccc(Cl)cc2Cl)cc1 (centres unmarked) [Econazole]	3 to 10 µM	1 to 3 µM	
C=C(CC)C(=O)c1ccc(OCC(=O)O)c(Cl)c1Cl [Ethacrynic acid]	20 to 30 µM	> 800 µM	
O=c1c(-c2ccc(O)cc2)coc2cc(O)cc(O)c12 [Genistein]	150 to 200 µM	> 1000 µM	
COc1ccc2c(c1)c(CC(=O)O)c(C)n2C(=O)c1ccc(Cl)cc1 [Indomethacin]	10 to 20 µM	> 800 µM	
C[CH2][Hg][S]c1ccccc1C(=O)[O-].[Na+] [Merthiolate]	10 to 20 µM		IC50 (MDR1 [1]; [5]): > 200 µM
CCN1C(=O)C=CC1=O [NEM, N-ethylmaleimide]	0.2 to 0.5 µM	> 50 µM	
CC[C@H]1/C=C/C=C/C[C@@H](C)[C@H](O)[C@@](C)(O)C(=O)[C@@H](C)[C@H](O)[C@@H](C)C(=O)[C@@H](C)[C@H](O)[C@@H](C)/C=C/C(=O)O[C@@H]2[C@H](C)[C@H](CC1)O[C@]1(CC[C@H](C)[C@H](C[C@@H](C)O)O1)[C@H]2C [Oligomycin]	1 to 2 µM	1 to 2 µM	
CCCN(CCC)S(=O)(=O)c1ccc(C(=O)O)cc1 [Probenacid, Probenecid]	500 to 800 µM	> 2000 µM	
CCCCC[C@H](O)/C=C/[C@H]1C=CC(=O)[C@@H]1CCCCCCC(=O)O [Prostaglandin A1]	3 to 5 µM		IC50 (MDR1 [1]; [5]): > 100 µM
C=C[C@H]1C[N@@]2CC[C@H]1C[C@H]2[C@H](O)c1ccnc2ccc(OC)cc12 [Quinine]	50 to 100 µM		
O=C1C(CC[S+]([O-])c2ccccc2)C(=O)N(c2ccccc2)N1c1ccccc1 (centres unmarked) [Sulfinpyrazone]	300 to 500 µM	> 2000 µM	
CC/C(=C(\c1ccccc1)c1ccc(OCCN(C)C)cc1)c1ccccc1 [Tamoxifen]	3 to 6 µM		
COc1ccc(CCN(C)CCCC(C#N)(c2ccc(OC)c(OC)c2)C(C)C)cc1OC (centres unmarked) [Verapamil]			effect on calcein accumulation (KB3 cells): no detectable effect; effect on rate of calcein accumulation (P388-C cells [4]): not influenced
CC[C@]1(O)C[C@@H]2CN(CCc3c([nH]c4ccccc34)[C@@](C(=O)OC)(c3cc4c(cc3OC)N(C)[C@H]3[C@@](O)(C(=O)OC)[C@H](OC(C)=O)[C@]5(CC)C=CCN6CC[C@]43[C@@H]65)C2)C1 [Vinblastine]	2 to 5 µM		
calcein-acetoxy-methylester [calcein-AM]			Ka, activation of the MDR dependent ATPase (MDR dependent ATPase): ≤ 1 µmol/L
